Earlier results in US6638431B2, “Formulation and method for treating wetted surface elements in climate control systems” (Mainstream Engineering Corporation, priority 2001, dated 2003).

Test system: Legionella pneumophilia

In the case of `[Ag]` [Ag, silver], the “concentration in water effective against Legionella pneumophilia” value is listed as “about 0.02 ppm”.
